# In ChEMBL document CHEMBL3885861, “Open TG-GATES”:
# Species: Rattus norvegicus
# Assay: Open TG-GATES - Regimen: Single
# Assay type: toxicity, organism-based, Sprague-Dawley
# Parameters: regimen Single, gender Male, age 6 weeks
# Conditions: in vivo, po, route gavage; for gamma-GTP / ALP / ALT / AST / BUN / CRE / DBIL / GLC / IP / K / Na / PL / RALB / TBIL / TC / TG / TP / LDH / Ca: tissue Plasma; for APTT / Bas / Eos / Fbg / Hb / Ht / Lym / MCH / MCHC / MCV / Mono / Neu / PT / Plat / RBC / Ret / WBC: tissue Blood; for KIDNEY_L / KIDNEY_R / KIDNEY_TOTAL: tissue Kidney; for LIVER: tissue Liver
# [1] = 300 mg/kg, 3 h, dose level Middle
# [2] = 300 mg/kg, 6 h, dose level Middle
# [3] = 300 mg/kg, 9 h, dose level Middle
# [4] = 300 mg/kg, 24 h, dose level Middle
# [5] = 1000 mg/kg, 3 h, dose level High
# [6] = 1000 mg/kg, 6 h, dose level High
# [7] = 1000 mg/kg, 9 h, dose level High
# [8] = 1000 mg/kg, 24 h, dose level High
smiles,measurement,setting,value
C[C@H](CS)C(=O)N1CCC[C@H]1C(=O)O [CAPTOPRIL],gamma-GTP,"100 mg/kg, 24 h, dose level Low",1 IU/L
same,TERMINAL_BW,[1],224.2 g
same,APTT,[1],16.3 s
same,Bas,[1],0%
same,Eos,[1],0.8%
same,Fbg,[1],204.8 mg/dL
same,Hb,[1],13.2 g/dL
same,Ht,[1],39.8%
same,Lym,[1],83.6%
same,MCH,[1],21.3 pg
same,MCHC,[1],33.2%
same,MCV,[1],64.1 fL
same,Mono,[1],5%
same,Neu,[1],10%
same,PT,[1],11.6 s
same,Plat,[1],117.4 x10_4/uL
same,RBC,[1],620.8 x10_4/ul
same,Ret,[1],6.6%
same,WBC,[1],125.4 x10_2/uL
same,KIDNEY_L,[1],1 g
same,KIDNEY_R,[1],1 g
same,KIDNEY_TOTAL,[1],2 g
same,LIVER,[1],11.2 g
same,ALP,[1],845.8 IU/L
same,ALT,[1],33.4 IU/L
same,AST,[1],61.8 IU/L
same,BUN,[1],17 mg/dL
same,CRE,[1],0.4 mg/dL
same,DBIL,[1],0.006 mg/dL
same,GLC,[1],209.4 mg/dL
same,IP,[1],9.3 mg/dL
same,K,[1],5 meq/L
same,Na,[1],138 meq/L
same,PL,[1],130 mg/dL
same,RALB,[1],3.7 g/dL
same,TBIL,[1],0.4 mg/dL
same,TC,[1],70.8 mg/dL
same,TG,[1],68.6 mg/dL
same,TP,[1],5.4 g/dL
same,gamma-GTP,[1],1.4 IU/L
same,TERMINAL_BW,[2],221.9 g
same,APTT,[2],16.4 s
same,Bas,[2],0%
same,Eos,[2],1.2%
same,Hb,[2],12.9 g/dL
same,Ht,[2],39%
same,Lym,[2],80%
same,MCH,[2],21 pg
same,MCHC,[2],33%
same,MCV,[2],63.5 fL
same,Mono,[2],6.6%
same,Neu,[2],12.2%
same,PT,[2],12.1 s
same,Plat,[2],116.7 x10_4/uL
same,RBC,[2],615 x10_4/ul
same,Ret,[2],8.2%
same,WBC,[2],113.8 x10_2/uL
same,KIDNEY_L,[2],1 g
same,KIDNEY_R,[2],1 g
same,KIDNEY_TOTAL,[2],2 g
same,ALP,[2],734.8 IU/L
same,ALT,[2],32 IU/L
same,AST,[2],55 IU/L
same,BUN,[2],21.8 mg/dL
same,CRE,[2],0.6 mg/dL
same,DBIL,[2],0.026 mg/dL
same,GLC,[2],197.4 mg/dL
same,K,[2],4.8 meq/L
same,LDH,[2],92.4 IU/L
same,Na,[2],139 meq/L
same,PL,[2],133.6 mg/dL
same,RALB,[2],3.5 g/dL
same,TBIL,[2],0.5 mg/dL
same,TC,[2],73.6 mg/dL
same,TG,[2],50.4 mg/dL
same,TP,[2],5.1 g/dL
same,gamma-GTP,[2],2 IU/L
same,TERMINAL_BW,[3],222.6 g
same,APTT,[3],15.9 s
same,Bas,[3],0%
same,Eos,[3],0.8%
same,Fbg,[3],204 mg/dL
same,Hb,[3],13 g/dL
same,Ht,[3],39.5%
same,Lym,[3],79.2%
same,MCH,[3],21.4 pg
same,MCHC,[3],32.8%
same,MCV,[3],65.4 fL
same,Mono,[3],4.8%
same,Neu,[3],15.2%
same,PT,[3],12.3 s
same,RBC,[3],604.2 x10_4/ul
same,Ret,[3],8.6%
same,KIDNEY_L,[3],1 g
same,KIDNEY_R,[3],1 g
same,KIDNEY_TOTAL,[3],2 g
same,LIVER,[3],9.4 g
same,ALP,[3],667 IU/L
same,ALT,[3],35.4 IU/L
same,AST,[3],55.8 IU/L
same,BUN,[3],16.8 mg/dL
same,CRE,[3],0.4 mg/dL
same,DBIL,[3],0.078 mg/dL
same,GLC,[3],208.6 mg/dL
same,K,[3],5 meq/L
same,LDH,[3],72.6 IU/L
same,Na,[3],139.6 meq/L
same,PL,[3],139.6 mg/dL
same,RALB,[3],3.7 g/dL
same,TBIL,[3],0.3 mg/dL
same,TC,[3],78.8 mg/dL
same,TG,[3],49 mg/dL
same,TP,[3],5.3 g/dL
same,gamma-GTP,[3],2 IU/L
same,TERMINAL_BW,[4],235.1 g
same,APTT,[4],16.5 s
same,Bas,[4],0%
same,Eos,[4],0.8%
same,Hb,[4],13.2 g/dL
same,Ht,[4],39.8%
same,Lym,[4],83.4%
same,MCH,[4],21.5 pg
same,MCHC,[4],33.2%
same,MCV,[4],64.8 fL
same,Mono,[4],5.2%
same,Neu,[4],10%
same,PT,[4],11.4 s
same,Plat,[4],118.6 x10_4/uL
same,RBC,[4],613.8 x10_4/ul
same,Ret,[4],8.6%
same,KIDNEY_L,[4],1 g
same,KIDNEY_R,[4],1 g
same,KIDNEY_TOTAL,[4],2.1 g
same,LIVER,[4],11.6 g
same,ALT,[4],37.6 IU/L
same,AST,[4],64.8 IU/L
same,BUN,[4],17.4 mg/dL
same,CRE,[4],0.6 mg/dL
same,Ca,[4],11.3 mg/dL
same,DBIL,[4],0.02 mg/dL
same,GLC,[4],189.6 mg/dL
same,IP,[4],8.5 mg/dL
same,K,[4],4.9 meq/L
same,LDH,[4],115.6 IU/L
same,Na,[4],138.8 meq/L
same,PL,[4],150.6 mg/dL
same,RALB,[4],4.1 g/dL
same,TBIL,[4],0.3 mg/dL
same,TC,[4],79.2 mg/dL
same,TG,[4],86 mg/dL
same,TP,[4],5.9 g/dL
same,gamma-GTP,[4],0.6 IU/L
same,TERMINAL_BW,[5],222.3 g
same,APTT,[5],16 s
same,Bas,[5],0%
same,Eos,[5],1%
same,Fbg,[5],204.8 mg/dL
same,Hb,[5],13.6 g/dL
same,Ht,[5],40.9%
same,Lym,[5],76.8%
same,MCH,[5],21.8 pg
same,MCHC,[5],33.1%
same,MCV,[5],65.9 fL
same,Mono,[5],5.6%
same,Neu,[5],16.4%
same,PT,[5],12.1 s
same,Plat,[5],118.1 x10_4/uL
same,RBC,[5],621.6 x10_4/ul
same,Ret,[5],8.4%
same,KIDNEY_L,[5],1 g
same,KIDNEY_R,[5],1 g
same,KIDNEY_TOTAL,[5],2.1 g
same,ALP,[5],661.2 IU/L
same,ALT,[5],37 IU/L
same,AST,[5],61 IU/L
same,BUN,[5],17.4 mg/dL
same,CRE,[5],0.5 mg/dL
same,DBIL,[5],0.006 mg/dL
same,GLC,[5],213 mg/dL
same,IP,[5],9.8 mg/dL
same,K,[5],5 meq/L
same,Na,[5],137.8 meq/L
same,PL,[5],133.6 mg/dL
same,RALB,[5],3.5 g/dL
same,TBIL,[5],0.5 mg/dL
same,TC,[5],79.4 mg/dL
same,TG,[5],53.8 mg/dL
same,TP,[5],5.5 g/dL
same,gamma-GTP,[5],1.4 IU/L
same,TERMINAL_BW,[6],215.6 g
same,APTT,[6],16.5 s
same,Bas,[6],0%
same,Eos,[6],1%
same,Fbg,[6],205.6 mg/dL
same,Hb,[6],13.4 g/dL
same,Ht,[6],40.4%
same,Lym,[6],79.6%
same,MCH,[6],21.1 pg
same,MCHC,[6],33.1%
same,MCV,[6],63.9 fL
same,Mono,[6],5.2%
same,Neu,[6],14%
same,PT,[6],12.6 s
same,RBC,[6],632.8 x10_4/ul
same,Ret,[6],8.2%
same,WBC,[6],110.9 x10_2/uL
same,KIDNEY_L,[6],1 g
same,KIDNEY_R,[6],1 g
same,KIDNEY_TOTAL,[6],2 g
same,LIVER,[6],9.6 g
same,ALP,[6],736.6 IU/L
same,ALT,[6],32.8 IU/L
same,AST,[6],57.6 IU/L
same,BUN,[6],21.2 mg/dL
same,CRE,[6],0.6 mg/dL
same,DBIL,[6],0.02 mg/dL
same,GLC,[6],211.4 mg/dL
same,IP,[6],9.8 mg/dL
same,K,[6],4.7 meq/L
same,LDH,[6],110.4 IU/L
same,Na,[6],139.6 meq/L
same,PL,[6],112.8 mg/dL
same,RALB,[6],3.6 g/dL
same,TBIL,[6],0.5 mg/dL
same,TC,[6],62.6 mg/dL
same,TG,[6],48.4 mg/dL
same,TP,[6],5.4 g/dL
same,gamma-GTP,[6],1.6 IU/L
same,TERMINAL_BW,[7],220.7 g
same,APTT,[7],16.6 s
same,Bas,[7],0%
same,Eos,[7],1%
same,Fbg,[7],201.2 mg/dL
same,Hb,[7],12.7 g/dL
same,Ht,[7],38.9%
same,Lym,[7],77.6%
same,MCH,[7],20.8 pg
same,MCHC,[7],32.7%
same,MCV,[7],63.4 fL
same,Mono,[7],4.8%
same,Neu,[7],16.6%
same,PT,[7],12.4 s
same,Plat,[7],113.6 x10_4/uL
same,RBC,[7],613.4 x10_4/ul
same,Ret,[7],8.7%
same,KIDNEY_L,[7],1 g
same,KIDNEY_R,[7],1 g
same,KIDNEY_TOTAL,[7],2 g
same,LIVER,[7],9.1 g
same,ALP,[7],691.6 IU/L
same,ALT,[7],36 IU/L
same,AST,[7],59.4 IU/L
same,BUN,[7],24.4 mg/dL
same,CRE,[7],0.4 mg/dL
same,DBIL,[7],0.08 mg/dL
same,GLC,[7],192.2 mg/dL
same,IP,[7],11 mg/dL
same,K,[7],5.3 meq/L
same,LDH,[7],76 IU/L
same,Na,[7],140 meq/L
same,PL,[7],118.2 mg/dL
same,RALB,[7],3.4 g/dL
same,TBIL,[7],0.5 mg/dL
same,TC,[7],68.4 mg/dL
same,TG,[7],27.4 mg/dL
same,TP,[7],5.1 g/dL
same,gamma-GTP,[7],1.8 IU/L
same,TERMINAL_BW,[8],237.2 g
same,APTT,[8],16.4 s
same,Bas,[8],0%
same,Eos,[8],1%
same,Hb,[8],12.8 g/dL
same,Ht,[8],38.5%
same,Lym,[8],79%
same,MCH,[8],21.7 pg
same,MCHC,[8],33.2%
same,MCV,[8],65.3 fL
same,Mono,[8],5.2%
same,Neu,[8],14.8%
same,PT,[8],11.3 s
same,Plat,[8],110.3 x10_4/uL
same,RBC,[8],589.4 x10_4/ul
same,Ret,[8],8.4%
same,WBC,[8],95.8 x10_2/uL
same,KIDNEY_L,[8],1.1 g
same,KIDNEY_R,[8],1.1 g
same,KIDNEY_TOTAL,[8],2.1 g
same,LIVER,[8],11.8 g
same,ALP,[8],971.2 IU/L
same,ALT,[8],39.8 IU/L
same,AST,[8],66.4 IU/L
same,BUN,[8],16.8 mg/dL
same,CRE,[8],0.6 mg/dL
same,Ca,[8],11.1 mg/dL
same,DBIL,[8],0.058 mg/dL
same,GLC,[8],200.4 mg/dL
same,IP,[8],8.6 mg/dL
same,K,[8],4.5 meq/L
same,LDH,[8],100.4 IU/L
same,Na,[8],137.8 meq/L
same,PL,[8],142 mg/dL
same,RALB,[8],3.9 g/dL
same,TBIL,[8],0.3 mg/dL
same,TC,[8],81.4 mg/dL
same,TP,[8],5.7 g/dL
same,gamma-GTP,[8],1.2 IU/L
